According to US20080004320A1, “Remedy for Glomerular Disease” (Kowa Co., Ltd., priority 2004, published 2008):
Counter-ions that a name gives are not always drawn.

Tested on: ⅚ nephrectomized rats
Assay: Effect on ⅚ nephrectomized rat (progressive renal failure model)
Format: in vivo
Details: for death due to renal failure, compared with control group (FIG. 1): until week 15 after initiation of drug administration; for glomerulosclerosis score compared with control group (in words) / Glomerulosclerosis (score): week 15 after initiation of drug administration; for Glomerulosclerosis (score): average score of 50 glomeruli per renal tissue piece, male SD rats
From the text: Fifty-one male SD rats (seven weeks old, purchased from Japan SLC, Inc.) were anesthetized with pentobarbital, and the left kidney of each rat was exposed. Under a stereoscopic microscope, two of the left renal artery branches (generally, one renal artery is separated into three branches) were ligated and one central branch was left intact. When a renal artery branch is ligated, a portion controlled by the branch falls into ischemia, and such an ischemic renal portion can be visually detected. One week later, the right kidney was removed. That is to say, ⅚ of the kidneys was removed. Four weeks after surgery, blood was collected from each rat under unanesthetized conditions, and plasma creatinine level (Pcr) was measured. Pcr is a blood parameter indicative of renal function, and an increase in Pcr indicates impairment of renal function. After Pcr measurement, rats with considerably impaired renal function and rats with no impairment of renal function were eliminated, to thereby select 36 rats employed for the test.
Subsequently, on the basis of the thus-obtained Pcr data, these rats were divided into four groups in such a manner that the value of Pcr was averaged out among each group: control group (i.e., no drug administration group) (N=9); pyridoxamine dihydrochloride administration group (administered in the form of aqueous solution (1.5 g/L)) (N=9); candesartan cilexetil administration group ((1 mg/kg) administered orally once a day) (N=9); and combined administration group (pyridoxamine dihydrochloride administered in the form of aqueous solution (1.5 g/L), and candesartan cilexetil (1 mg/kg) administered orally once a day) (N=9). In addition to these four groups, one normal rat group non-surgical group, was provided.
Pyridoxamine dihydrochloride was dissolved in purified water, and the aqueous solution was available to the rats ad libitum. The daily dose of pyridoxamine dihydrochloride was about 100 mg/kg Candesartan cilexetil was suspended in 0.5% methyl cellulose sodium solution upon use, and the suspension was repeatedly orally administered.
Drug administration was initiated at week five after surgery (Pcr was about 1.5 mg/dL at the start of drug administration; i.e., renal function had already been impaired).
After initiation of drug administration, the number of surviving rats was recorded every day. Per was measured at week two, week four, week seven, week 11, and week 15 after initiation of drug administration. Urinary total protein excretion was measured at week four, week seven, week 11 and week 15 after initiation of drug administration (each measurement was performed after 18-hour urine accumulation). In addition, at week 15 after initiation of drug administration, systolic blood pressure was measured under unanesthetized conditions by means of a noninvasive blood pressure measuring apparatus.
At week 15 after initiation of drug administration, the renal tissue of each rat was observed, and the degree of glomerulosclerosis was evaluated on the basis of the below-described score. […] As used herein, the term “score” refers to the degree of glomerulosclerosis; i.e., the degree of hyperplasia of mesangial matrix in glomeruli. […] Score 0 was assigned to a glomerulus similar to that of rats in the normal rat group; score 1 was assigned to a glomerulus in which the area of mesangial matrix accounts for less than 25%; score 2 was assigned to a glomerulus in which the area of mesangial matrix accounts for 25% or more and less than 50%; score 3 was assigned to a glomerulus in which the area of mesangial matrix accounts for 50% or more and less than […]; and score 4 was assigned to a glomerulus in which the area of mesangial matrix accounts for 75% or more. The average of the thus-obtained scores of the glomeruli was employed for evaluation of glomerulosclerosis.

| SMILES | death due to renal failure, compared with control group (FIG. 1) | glomerulosclerosis score compared with control group (in words) | Glomerulosclerosis (score) |
| --- | --- | --- | --- |
| CCOc1nc2cccc(C(=O)OC(C)OC(=O)OC3CCCCC3)c2n1Cc1ccc(-c2ccccc2-c2nnn[nH]2)cc1 (stereo not drawn) [Candesartan cilexetil, 1-(cyclohexyloxycarbonyloxy)ethyl 2-ethoxy-1-[2′-(1H-tetrazol-5-yl)biphenyl-4-ylmethyl]-1H-benzimidazole-7-carboxylate] | tendency for suppression of death due to renal failure was observed | reduction in score was observed | 1.52 ± 0.45 score |
| Cc1ncc(CO)c(CN)c1O [Pyridoxamine dihydrochloride, 4-(aminomethyl)-5-hydroxy-6-methyl-3-pyridinemethanol] | tendency for suppression of death due to renal failure was observed | no reduction in score was observed | 1.93 ± 0.35 score |
